# Assay results taken from patent US6500849B1, “1-alkyl-, 1-alkenyl-, and 1-alkynylaryl-2-amino 1,3-propanediols and related compounds” (Aventis Pharmaceuticals Inc., priority 1990, dated 2002).
# Columns and labels:
# [1] = system: female Swiss Webster mice; experiment: TPA-induced ear edema assay; format: in vivo; details: 10 μg/ear topical, after about 5 hours
# Protocol: In the TPA-induced ear edema assay, TPA (12-O-tetradecanoylphorbol-13-acetate) was dissolved in 30/70 propylene glycol/ethanol and was applied to the right ear of groups of 6 female Swiss Webster mice, which were housed together in a cage under standard conditions for 1 week prior to use with food and water ad lib, at a volume of 20 μl so that a total of 10 μg of TPA is delivered to the inner and outer surfaces of the ear. The test compound was dissolved in the vehicle and was applied to the right ear (the inner and outer surface) at a volume of 20 μl so that a total of 10 μg of the compound was delivered to the ear. After about 5 hours, the animals were sacrificed, a 4 mm diameter plug was taken from each ear and weighed. The difference between the right and left ear plug weights for each animal was determined. The antiinflammatory activity of the test compound is expressed as the mean percent change in the ear plug weight of the treated animals compared to the mean percent change in the plug weight of the control animals.
# Fusobact. varium = experiment: Anerobic antibacterial assay (agar dilution, Wilkins-Chalgren agar); format: cell-based; details: anaerobic, 48 hours at 37° C.
# Klebsiella spp. = experiment: Aerobic antibacterial assay (agar dilution, Mueller-Hinton agar); details: Klebsiella spp. 1522E; aerobic; 24 hours at 37° C.
# E. cloacae = experiment: as above; details: E. cloacae 1321E; aerobic; 24 hours at 37° C.
# [2] = system: female Swiss Webster mice; experiment: Arachidonic acid-induced ear edema assay; format: in vivo; details: 1 mg/ear topical, arachidonic acid 4 mg/ear
# Protocol: In the arachidonic acid-induced ear edema assay, the test compound was dissolved in 30/70 propylene glycol/ethanol and was applied to both ears of groups of 6 female Swiss Webster mice, which were housed together in a cage under standard conditions for 1 week prior to use with food and water ad lib, at a volume of 20 μl so that a total of 1.0 mg of test compound was delivered to each ear over the inner and outer surfaces. The same volume (20 μl) of vehicle was applied to each ear of a control group of mice. After 30 minutes, arachidonic acid was applied to the right ear of each mouse of each group in the amount of 4 mg/ear. Vehicle was applied to the left ear of each mouse of each group at a volume of 20 μl/ear. After an additional hour, the mice were sacrificed and a 4 mm plug was taken from each ear and weighed. The difference between the right and left ear plugs was determined for each animal. The antiinflammatory activity of the test compound is expressed as the mean percent change in the ear plug weight of the treated animals relative to the mean percent change in weights of control animals' ear. Antiinflammatory activity of representative compounds of the present invention as determined in this assay are presented below in Table 3.
# Propionibact. acnes = experiment: Anerobic antibacterial assay (agar dilution, Wilkins-Chalgren agar); format: cell-based; details: anaerobic, 48 hours at 37° C.
# Strept. pyogenes = experiment: Aerobic antibacterial assay (agar dilution, Mueller-Hinton agar); details: Strept. pyogenes 77 A; aerobic; 24 hours at 37° C.
# Protein kinase C = Protein kinase C assay (32P incorporation into Type III histone); format: biochemical, rat; details: rat brain protein kinase C; phosphatidylserine/diacylglycerol stimulated; read-out: Protein Kinase Inhibitory Activity IC50
# Protocol: (see U. Kikkawa, et al., Biochemical and Biophysical Research Communications, 135, 636 (1986) and R. M. Bell, et al. “Methods in Enzymology, Hormone Action,” Part J, P.M. Conn, Ed., Academic Press, Inc., New York, N.Y. 1986, page 353). Protein kinase C enzyme extract was prepared from the brain of male Wistar rats weighing 180 to 200 g and purified by the method of U. Kikkawa, et al., ibid. 636. The purified extract was stored at −80° C., and aliquots were used in the protein kinase C assay performed by a modification of the method of R. M. Bell, et al., ibid. al 354. To perform the assay, duplicate aliquots of duplicate samples are employed. Basal or unstimulated protein kinase C, phosphatidylserine/diacylglycerol stimulated protein kinase C, and test samples are run in each assay. […] The assay tubes were allowed to warm to 25° C. and an 8 μl mixture of adenosine 5′-triphosphate (100 μM) and ^32P-adenosine triphosphate (1 to 2×10^5 counts per minute) was added to each tube for a final volume of 80 μl per tube. After 2 min, the reaction (the incorporation of phosphorous into Type III histone) was terminated by spotting the assay mixture on phosphocellulose paper. The spots are cut out of the paper and the radioactivity (counts per min) of each spot was determined in a scintillation counter.
# Peptostr. anaerobius = experiment: Anerobic antibacterial assay (agar dilution, Wilkins-Chalgren agar); format: cell-based; details: Peptostr. anaerobius 932; anaerobic; 48 hours at 37° C.
# Clost. perfringens = experiment: microbe, parasite or virus in culture; format: cell-based; details: Clost. perfringens 194; anaerobic; 48 hours at 37° C.
# Candida Albicans = experiment: Antifungal assay (microtitration technique); format: cell-based; details: Candida Albicans strain 200/175; 5 days at 30° C.
# Protocol: (§1) The microtiter plate is prepared as follows: The wells are each filled (2 rows/strain) with 50 μl neopeptone-dextrose broth (12-channel pipette). In addition, one row/strain is coated with 50 μl yeast-nitrogen base/well for yeasts and moulds. […] All wells are then inoculated with 150 μl standardized organism suspension (yeasts: 1×10^3 organisms/ml suspension; cutaneous fungi and moulds: 1.6×10^5 organisms/ml suspension); the total volume is 200 μl per well. There is also a growth control (inoculated, not medicated), a solvent control (inoculated, not medicated, containing solvent as in medicated rows) and a negative control (not inoculated, not medicated). Incubation for 5 days at 30° C. is followed by photometric evaluation. The obtained measurements are checked visually (macroscopically and microscopically) and corrected where necessary. Criteria for Evaluation of the Antimycotic Effect a. Photometric measurements (matrix method) b. Growth, macroscopic evaluation c. Growth, microscopic evaluation (inversion light microscope, magn. 64×).
# [3] = system: Trichophyton Mentagrophytes; experiment: Antifungal assay (microtitration technique); format: cell-based; details: Trichophyton Mentagrophytes strain 100/25; 5 days at 30° C.
# Protocol: as §1
# Trichophyton Vaginalis = experiment: Antifungal assay (microtitration technique); format: cell-based; details: Trichophyton Vaginalis strain 111/216; 5 days at 30° C.
# Protocol: as §1
# Microsporum Canis = experiment: Antifungal assay (microtitration technique); format: cell-based; details: Microsporum Canis strain 150/353; 5 days at 30° C.
# Protocol: as §1
# Trichophyton Rubrum = experiment: Antifungal assay (microtitration technique); format: cell-based; details: Trichophyton Rubrum strain 101/85; 5 days at 30° C.
# Protocol: as §1
# Aspergillus Niger = experiment: Antifungal assay (microtitration technique); format: cell-based; details: Aspergillus Niger strain 500/284; 5 days at 30° C.
# Protocol: as §1
# Bact. distasonis = experiment: Anerobic antibacterial assay (agar dilution, Wilkins-Chalgren agar); format: cell-based; details: Bact. distasonis 1366; anaerobic; 48 hours at 37° C.
# Clost. tetani = experiment: as above; format: cell-based; details: Clost. tetani 19406; anaerobic; 48 hours at 37° C.
# Spaeroph. freundii = experiment: as above; format: cell-based; details: Spaeroph. freundii 1369; anaerobic; 48 hours at 37° C.
# Bact. vulgatus = experiment: as above; format: cell-based; details: Bact. vulgatus 1446; anaerobic; 48 hours at 37° C.
# Bact. fragilis = experiment: as above; format: cell-based; details: anaerobic, 48 hours at 37° C.
# Bact. ovatus = experiment: as above; format: cell-based; details: Bact. ovatus 103; anaerobic; 48 hours at 37° C.
# Bact. thetaiotaom. = experiment: as above; format: cell-based; details: anaerobic, 48 hours at 37° C.
smiles,measurement,setting,value
"CCCCCCCCCCc1cccc(C(O)C(N)CO)n1 (stereo not drawn) [erythro-2-amino-1-(6-decyl-2-pyridinyl)-1,3-dihydroxypropane]",Antiinflammatory Activity Percent Decrease in Ear Plug Weight at 10 μg/ear,[1],66%
same,"Antibacterial activity (MIC, mg/l)",Fusobact. varium; Fusobact. varium 3085,12.50 mg/L
same,"Antibacterial activity (MIC, mg/l)",Klebsiella spp.,12.50 mg/L
same,"Antibacterial activity (MIC, mg/l)",E. cloacae,12.50 mg/L
same,Antiinflammatory Activity Percent Decrease in Ear Plug Weight at 1 mg/ear,[2],32%
same,"Antibacterial activity (MIC, mg/l)",Propionibact. acnes; Propionibact. acnes 6922,12.50 mg/L
same,"Antibacterial activity (MIC, mg/l)",Strept. pyogenes,6.25 mg/L
same,IC50,Protein kinase C,48 µM
"CCCCCCCCCCC#Cc1cccc([C@@H](O)[C@H](CO)NC(C)=O)n1 [erythro-N-{1-[6-(1-Dodecynyl)-2-pyridinyl]-1,3-dihydroxy-2-propanyl}acetamide]",Antiinflammatory Activity Percent Decrease in Ear Plug Weight at 10 μg/ear,[1],59%
same,"Antibacterial activity (MIC, mg/l)",Fusobact. varium; Fusobact. varium 3085,6.25 mg/L
same,"Antibacterial activity (MIC, mg/l)",Fusobact. varium; Fusobact. varium 5262,6.25 mg/L
same,"Antibacterial activity (MIC, mg/l)",Peptostr. anaerobius,6.25 mg/L
same,"Antibacterial activity (MIC, mg/l)",Clost. perfringens,12.00 mg/L
same,Antifungal Activity MIC,Candida Albicans,125.000 µg/mL
same,Antifungal Activity MIC,[3],7.810 µg/mL
same,Antifungal Activity MIC,Trichophyton Vaginalis,15.625 µg/mL
same,Antifungal Activity MIC,Microsporum Canis,0.970 µg/mL
same,Antifungal Activity MIC,Trichophyton Rubrum,31.250 µg/mL
same,Antifungal Activity MIC,Aspergillus Niger,125.000 µg/mL
same,"Antibacterial activity (MIC, mg/l)",Bact. distasonis,6.25 mg/L
same,"Antibacterial activity (MIC, mg/l)",Clost. tetani,12.50 mg/L
same,"Antibacterial activity (MIC, mg/l)",Propionibact. acnes; Propionibact. acnes 6919,6.25 mg/L
same,"Antibacterial activity (MIC, mg/l)",Propionibact. acnes; Propionibact. acnes 6922,6.25 mg/L
same,"Antibacterial activity (MIC, mg/l)",Spaeroph. freundii,3.13 mg/L
same,"Antibacterial activity (MIC, mg/l)",Bact. vulgatus,3.13 mg/L
same,"Antibacterial activity (MIC, mg/l)",Bact. fragilis; Bact. fragilis 312,3.13 mg/L
same,"Antibacterial activity (MIC, mg/l)",Bact. fragilis; Bact. fragilis 960,3.13 mg/L
same,"Antibacterial activity (MIC, mg/l)",Bact. fragilis; Bact. fragilis 1313,6.25 mg/L
same,"Antibacterial activity (MIC, mg/l)",Bact. fragilis; Bact. fragilis 17390,6.25 mg/L
same,"Antibacterial activity (MIC, mg/l)",Bact. fragilis; Bact. fragilis 18125,3.13 mg/L
same,"Antibacterial activity (MIC, mg/l)",Bact. fragilis; Bact. fragilis 19016,6.25 mg/L
same,"Antibacterial activity (MIC, mg/l)",Bact. ovatus,3.13 mg/L
same,"Antibacterial activity (MIC, mg/l)",Bact. thetaiotaom.; Bact. thetaiotaom. 123,3.13 mg/L
same,"Antibacterial activity (MIC, mg/l)",Bact. thetaiotaom.; Bact. thetaiotaom. 1428,6.25 mg/L
same,"Antibacterial activity (MIC, mg/l)",Bact. thetaiotaom.; Bact. thetaiotaom. 1445,6.25 mg/L
